Test results taken from PMC13046583, “SRS143 a semi-synthetic analogue of andrographolide against house dust mite induced allergic asthma” (Naunyn-Schmiedeberg's Archives of Pharmacology, 2025).
Entries after “also recorded” stand apart in the source; their conditions may differ.

Experiments:
[1] = tested on: RBL-2H3 cells; experiment: β-hexosaminidase release assay, calcium ionophore A23187 stimulation; format: cell-based
Description: (§1) The inhibitory activity of SRS143 and quercetin against the release of β-hexosaminidase from RBL-2H3 cells was evaluated according to the method reported previously (Lin et al. [2020]). Briefly, the cells were cultured in a 24-well cell culture plate (9 × 10^5/well, Becton–Dickinson Co., Franklin Lakes, NJ) with concentration ([…]) of mouse monoclonal anti-dinitrophenyl (DNP) IgE. After washing with PBS, SRS143 at various concentrations (0, 0.1, 1 and 10 μM)) or quercetin (30 μM) was added. After 60 min of incubation, DNP-labeled bovine serum albumin (DNP-labeled BSA, 50 ng/ml final concentration) was added, followed by 45 min of incubation. The supernatant (50 μl) was mixed with 100 μl of a 0.1 M citrate buffer (pH 4.5) containing 1 mM […] and the mixture was incubated in a 96-well plate at 37 °C for 60 min. For the calcium ionophore stimulation method, CaI A23187 was added at 5 µM to induce degranulation. Each well was replaced with 0.4 mL of MEM media and 100 µL of MTT solution to evaluate cell viability using MTT assay. Supernatants from CaI A23187-induced degranulated cells were collected, centrifuged, and reacted with PNAG in citrate buffer at 37℃ for 1 h. The reaction was stopped, and absorbance at 405 nm was measured using a microplate reader (Versamax).to assess beta-hexosaminidase activity, indicating enzyme subproduct levels. The results are expressed as percentage release of β-hexosaminidase activity amount by antigen (DNP-labeled BSA) alone.
(§2) Mast cell degranulation is the key process in allergic asthma. To induce mast cell degranulation process in RBL-2H3 cells, the cells were sensitized and challenged with DNP-labelled specific antigen IgE. Alternatively, the mast cells were induced with calcium ionophore A23187 to trigger direct degranulation independent of activation of IgE. The release was assessed with β-hexosaminidase assay whereby the amount β-hexosaminidase enzyme released correlates to histamine release by RBL-2H3 cells. In the preliminary screening, single low dose of 10 µM of AGP and its derivatives were applied to the calcium ionophore activated cells for a short duration of 1 h. Quercetin as positive control was also applied at a higher dose of 50 µM. For cell viability assay, the cells were washed and replenished with fresh medium supplemented with 15% FBS after 1 h of treatment. The cell viability was measured at 24 h. […] Given close to eightfold improved potency in inhibition of mast degranulation (Fig. 4A, B and C). We further measured the efficacy of SRS143 in a dose response study involving both efficacy and toxicity.

[2] = Cell viability (MTT) assay; format: cell-based; conditions: rat, RBL-2H3 cells, 1 h treatment, washed, viability measured at 24 h
Description: (§3) RBL-2H3 cells were maintained in Minimum Essential Media (MEM, ThermoFischer, Grand Island, NY), supplemented with 15% heat-inactivated FBS, 100 U/mL of penicillin and 100 µg/mL of streptomycin. The cytotoxicity effect of the SRS143 was carried out using the rapid colorimetric assay that measures the activity of mitochondrial dehydrogenase in living cells, which convert the pale yellow soluble tetrazolium salt MTT into a insoluble purple end product formazan.
as §1, §2

[3] = tested on: HDM-induced asthmatic BALB/c mice; experiment: House dust mite allergic asthma mouse model, BAL fluid total and differential cell counts; format: in vivo; conditions: day 7-11, n = 6; for BAL fluid airway infiltration of all inflammatory leukocytes: 1 mg/kg i.p., positive control
Description: (§4) BALB/c mice of 6–8 weeks of age were housed in the animal experimentation unit, Faculty of Medicine and Health Sciences, Universiti Putra Malaysia (UPM). Mice were kept in individually vented cages (1820 cm^3, not more than 6 mice per cage) with a bed of poplar shaving and free access to clean water and food. Mice were grouped into 8 groups of 6 mice per group – Group 1: Normal control, Group 2: HDM, Group 3: Vehicle (6% DMSO), Group 4: SRS143 (0.3 mg/kg), Group 5: SRS143 (1 mg/kg), Group 6: SRS143 (3 mg/kg), Group 7: dexamethasone (1 mg/kg), Group 8: andrographolide (1 mg/kg). Throughout the study, both experimental and control mice were kept under appropriate conditions (22 ± 2 °C temperature, and 55 ± 10% relative humidity). The mice were maintained under a 12-h light-darkness cycle.
Allergic asthma was induced using house dust mite (Dermatophagoides pteronyssinus, Lot Number: 253983, Greer Laboratories, Lenoir, USA). The HDM was dissolved and prepared to a concentration of 5000 µg/mL in PBS, and then it was aliquoted and frozen (−20 °C) for further use. A 14-day HDM model was used to induce asthma in Balb/c mice (Lim et al. [2016]). The animals were sub-anesthetized using a cocktail of ketamine (50 mg/kg) and xylazine (3.3 mg/kg) for the intranasal HDM sensitization and challenged protocol. Briefly, the induction involved initial intranasal administration of 100 μg HDM extract (10 μL per nostril) on day 0, and subsequent administration of 10 μg of HDM (10 μL per nostril) on day 7—11. Mice were treated with SRS143 at doses of 0.3, 1, or 3 mg/kg, or with dexamethasone (1 mg/kg) or andrographolide (1 mg/kg). All treatments were administered at a constant volume of 10 mL/kg. Bronchoalveolar lavage (BAL) fluid collection was conducted on day 14.
Fig. 3 HDM-asthma induction protocol. Animals were intranasally (i.n.) sensitized using 100 μg of house dust mite (HDM) on day 0, this was followed by daily HDM intranasal challenge (10 μg) on day 7 −11. […]
BAL fluid total and differential cell counts were determined as described (Matsuda et al. [1994]).

[4] = tested on: Akt phosphorylation; experiment: Immunoblotting of Akt phosphorylation in IgE-FcεRI activated mast cells; format: cell-based; conditions: IgE-FcεRI activated RBL-2H3 cells, 0.1, 1 and 10 µM, n = 3
Description: Nuclear proteins of RBL-2H3 cells (10 µg per lane) were separated by 10% SDS-PAGE and immunoblots were developed as described (Matsuda et al. [1994]). Immunoblots were probed with anti-AKT and anti-β-actin antibodies (all from Cell Signalling Technology, Beverly, MA).

[5] = tested on: RBL-2H3 cells; experiment: β-hexosaminidase release assay, IgE-FcεRI (DNP-IgE/DNP-BSA) stimulation; format: cell-based
Description: The inhibitory activity of SRS143 and quercetin against the release of β-hexosaminidase from RBL-2H3 cells was evaluated according to the method reported previously (Lin et al. [2020]). Briefly, the cells were cultured in a 24-well cell culture plate (9 × 10^5/well, Becton–Dickinson Co., Franklin Lakes, NJ) with concentration ([…]) of mouse monoclonal anti-dinitrophenyl (DNP) IgE. After washing with PBS, SRS143 at various concentrations (0, 0.1, 1 and 10 μM)) or quercetin (30 μM) was added. After 60 min of incubation, DNP-labeled bovine serum albumin (DNP-labeled BSA, 50 ng/ml final concentration) was added, followed by 45 min of incubation. […] The reaction was stopped, and absorbance at 405 nm was measured using a microplate reader (Versamax).to assess beta-hexosaminidase activity, indicating enzyme subproduct levels. The results are expressed as percentage release of β-hexosaminidase activity amount by antigen (DNP-labeled BSA) alone.
Mast cell degranulation is the key process in allergic asthma. […] The release was assessed with β-hexosaminidase assay whereby the amount β-hexosaminidase enzyme released correlates to histamine release by RBL-2H3 cells. […] The cell viability was measured at 24 h. […] We further measured the efficacy of SRS143 in a dose response study involving both efficacy and toxicity.

[6] = tested on: HDM-induced asthmatic BALB/c mice; experiment: House dust mite allergic asthma mouse model, lung histology (H&E, PAS); format: in vivo
Description: as §4
(§5) Allergic asthma was induced using house dust mite (Dermatophagoides pteronyssinus, Lot Number: 253983, Greer Laboratories, Lenoir, USA). The HDM was dissolved and prepared to a concentration of 5000 µg/mL in PBS, and then it was aliquoted and frozen (−20 °C) for further use. […]
Isolated lungs were fixed in 10% neutral formalin and processed. […] (5 µm) were stained with H&E for inflammatory cell infiltration and Periodic Acid Schiff […] stain (PAS) for mucus production. Quantitative analysis under a light microscope was then performed. […]

[7] = tested on: RBL-2H3 cells; experiment: Cell viability (MTT) assay; format: cell-based
Description: as §3, §1, §2

[8] = tested on: HDM-induced asthmatic BALB/c mice; experiment: House dust mite allergic asthma mouse model, airway hyperresponsiveness to methacholine; format: in vivo; conditions: methacholine 2-32 mg/ml, n = 6
Description: as §4
as §5, with “use. A 14-day HDM model was used to induce asthma in Balb/c mice (Lim et al. [2016]). The animals were sub-anesthetized using a cocktail of ketamine (50 mg/kg) and xylazine (3.3 mg/kg) for the intranasal HDM sensitization and challenged protocol.” for “use.”

[9] = Rattus norvegicus, 10 µM, 1 h, calcium ionophore A23187 activated RBL-2H3 cells, read-out: Inhibition of β-Hexosaminidase Enzyme Release (%)

## O=c1c(O)c(-c2ccc(O)c(O)c2)oc2cc(O)cc(O)c12 [Quercetin, quercetin, reference compound]
[1]; Rattus norvegicus, 50 µM, 1 h, calcium ionophore A23187 activated RBL-2H3 cells, read-out: Inhibition of β-Hexosaminidase Enzyme Release (%)
  inhibition at 50 µM: 78.8 ± 8.5%
[2]; 50 µM
  viability at 1 h, 50 µM: 106%

## C[C@@H]1C[C@H]2[C@@H]3CCC4=CC(=O)C=C[C@]4(C)[C@@]3(F)[C@@H](O)C[C@]2(C)[C@@]1(O)C(=O)CO [Dexamethasone, dexamethasone, reference compound]
[3]
  BAL fluid airway infiltration of all inflammatory leukocytes: showed inhibition

## C=C1CCC2C3(C)COC(c4ccccc4)OC3CCC2(C)C1C/C=C1/C(=O)OCC1OC(C)=O (centres unmarked) [SRS143, 3,19-Benzylidene-14-acetylandrographolide]
[4]
  Levels of phosphorylated-Akt: decrease significantly at the highest dose of 10 μM
[5]; Rattus norvegicus, RBL-2H3, IgE-FceRI stimulation, 1 h (Fig. 4C), 50% mark on concentration axis, read-out: IC50, inhibition of β-hexosaminidase release
  IC50: 6.5 µM
[6]; 0.3, 1, 3 mg/kg i.p., day 7-11
  Peribronchial and perivascular inflammatory cellular infiltration in lung sections (H&E): dose-dependently decreased
[6]; SRS143 i.p., HDM sensitized and challenged mice
  PAS-positive cells score (mucus, goblet metaplasia): between mild to no observable goblet metaplasia
[1]; 10 µM screening, the comparator is not given, presumably AGP
  Improved potency in inhibition of mast degranulation: eightfold
[1]; Rattus norvegicus, RBL-2H3, 30 µM, 1 h, dose-response study (Fig. 4B), read-out: Inhibition of enzyme release
  inhibition at 30 µM: ~97%
[1]; Rattus norvegicus, RBL-2H3, calcium ionophore A23187 stimulation, 1 h (Fig. 4B), read-out: IC50, inhibition of β-hexosaminidase release
  IC50: 6.5 µM
[1]; [9]
  inhibition at 10 µM: 85.2 ± 3.1%
[7]; 1 h, 24 h, and 24 h after washing at 1 h
  Cytotoxicity on RBL-2H3 cells: only toxic if applied at the highest concentration of 100 µM
[2]
  viability at 1 h, 10 µM: 107%
[3]; 0.3, 1, 3 mg/kg i.p. 2 h before HDM challenge, vs HDM group
  BAL fluid total cells, macrophage, neutrophil, eosinophil and lymphocyte infiltration: significant reduction; also recorded: dose-dependently reduced
[8]; 1 and 3 mg/kg i.p.
  Airway resistance (RI) in response to methacholine: remarkable decrease
[8]; SRS143 i.p.
  Dynamic compliance (Cdyn) in response to methacholine: no significant changes

## C=C1CCC2C(C)(CO)C(O)CCC2(C)C1C=CC1=CCOC1=O (centres unmarked) [DDAG, 14-deoxy-11,12-didehydroandrographolide]
[7]; 10 µM, 1 h treatment, washed, viability measured at 24 h
  Viability of RBL-2H3 Cells (%): 99.6%

## C=C1CC[C@@H]2[C@](C)(CO)[C@H](O)CC[C@@]2(C)[C@@H]1C/C=C1/C(=O)OC[C@H]1O [AGP, andrographolide]
[5]; DNP-IgE activated RBL-2h3 cells
  In vitro antihistamine activity: did not show any in vitro antihistamine activity
[1]; 10 µM, 1 h, calcium ionophore A23187 activated RBL-2H3 cells
  Inhibition of β-Hexosaminidase Enzyme Release (%): low percentage inhibition level
[1]; [9]
  inhibition at 10 µM: 11.1 ± 5.7%
[1]; calcium ionophore activated RBL-2h3 cells
  In vitro antihistamine activity: did not show any in vitro antihistamine activity
[2]
  viability at 1 h, 10 µM: 81.3%
[3]
  BAL fluid airway infiltration of all inflammatory leukocytes: showed inhibition
